Assay results published in PMC12388506, “Preclinical Evaluation of 2-Aminobenzothiazole Derivatives: In Silico, In Vitro, and Preliminary In Vivo Studies as Diabetic Treatments and Their Complications” (Molecules, 2025).
Entries after “also recorded” stand apart in the source; their conditions may differ.

Assays:
[1] = Observed chemical stability of the isolated compound; type: physicochemical; details: neutral (acid) form
Procedure: Compound 5d was obtained according to the general procedure described. It consists of reacting one molar equivalent of compound 2 with the corresponding carboxylate (L-phenylalanine sodium salt) under refluxing ethanol for 24 h. Under these conditions, the reaction proceeds by nucleophilic attack of the amino group on the carbonimidothioate group of compound 2, with the elimination of gaseous thiomethanol to obtain the sodium salt of SMe-isothiourea 5d, with a yield of 40%. […] Therefore, it was used only as an intermediate for the synthesis of its corresponding methyl ester (8d). The corresponding SMe-isothiureacarbozxylate methyl ester 8d was obtained in 56% yield using one molar equivalent of the SMe-isothiurea sodium salt, with 1.2 equivalents of iodomethane in DMF at room temperature for 24 h, following the general procedure described in the literature. […]
In a flask, L-phenylalanine (202 mg, 1.23 mmol) and NaOH (48.8 mg, 1.2 mmol) were placed in 10 mL of EtOH. […] It was kept at the same temperature for 24 h, and the reaction was monitored with TLC (Hex-AcOEt 7:3). […] Compound 5d was obtained as an acid in the form of a pale white crystal with a yield of 40.0% (182.5 mg, 0.5 mmol) and an mp = 92−94 °C; TLC Rf = 0.44 (Hex-AcOEt 7:3); HPLC tr = 10.7 min; ATR-FTIR νmax (cm^−1): 3155.8, 3067.3, 2925, 2855.6; HRMS (ESI+) 372.0840 m/z calculated for C18H18N3O2S2; found 372.0928 [M + H]^+.

[2] = system: STZ-HFD-induced T2D Wistar rats; assay: Subchronic evaluation in STZ-HFD-induced T2D model; type: in vivo, rat; set-up: HbA1c: unit not given here
Procedure: In vivo experiments were conducted in an acute and a subchronic model, where Wistar rats (180–220 g) were used. The study covered a total period of 10 weeks and was carried out under the Mexican Standard, and the “Guide for the Care and Use of Laboratory Animals” of the National Research Council and Health Institutes was followed.
At first, animals were housed in polypropylene cages under conditions of controlled temperature (20–25 °C), relative humidity (36–60%), and light/dark cycles, with water ad libitum. Before starting the experiment, they were given a one-week acclimatization period to adapt to their new habitat. Once finalized, animals were fed an HFD for 3 weeks to generate insulin resistance.
After this period, the animals fasted for 12 h and then were administered intraperitoneally with a single dose of 35 mg/Kg of STZ dissolved in a buffer of 0.1 M citrate, pH 4.5 (prepared on the same day of administration). Once administered, the hypercaloric diet was maintained, and 10% sucrose solution was placed on demand for 2 days.
One week after administration, postprandial blood glucose levels were measured by venipuncture using a glucometer. Those animals that maintained a glucose level between 200 and 400 mg/dL were included in the study.
(§1) Treatments were administered daily as described above, adjusting the dose according to the weight of the individuals. Fasting glucose levels (6 h fast) were monitored every 7 days until the end of treatments at week 10 (Figure 14). Halfway through the last week of treatment, the OGTT was performed, administering a dose of 1.5 g/Kg of glucose orally and subsequently monitoring capillary blood glucose at 0, 15, 30, 60, 90, and 120 min [62]. In addition, a 24-element blood chemistry was measured in a Celercare V automated dry chemistry analyzer (Tianjin MNCHIP Technologies Co., Ltd., Tianjin, China) at the beginning and end of the model. For this purpose, the blood samples were obtained from the tail of the rat.
(§2) At the end of the study, animals fasted for 12 h and were taken to a humane endpoint, where blood samples were obtained. These were kept at room temperature for 30 min and then centrifuged at 4000 RPM for 15 min at 4 °C. Finally, the serum was used to perform 24-element blood chemistry and quantify Trolox-equivalent TAC [86], TNF-α [87], and IL-6 levels using commercial kits from Merck (Darmstadt, Germany), Sigma-Aldrich (St. Louis, MO, USA), Cat. No. MAK334-1KT, RAB0479-1KT, and RAB0311-1KT, respectively. In addition, insulin was quantified using the Rat Ins1/Insulin ELISA Kit, from Sigma-Aldrich, No. Cat. RAB0904-1KT [89] to determine the HOMA-IR index. All kits were performed according to the manufacturer’s instructions without modifications.

[3] = system: STZ-HFD-induced T2D Wistar rats; assay: 24-element blood chemistry in STZ-HFD-induced T2D model; type: in vivo, rat; set-up: GGT / TBA / AMY / TG / T-CHOL / GLU: unit not given here; details: for ALP / ALT / AST / CK: in U/L (unit assumed); for ALB / GLO / TP: in g/dL (unit assumed); for BUN / CRE / Ca / Mg / P / TBIL / UREA: in mg/dL (unit assumed); for tCO2: in mmol/L (unit assumed); for TP: mean ± SEM, n = 4
Procedure: as §1, §2

[4] = system: STZ-HFD-induced T2D Wistar rats; assay: Ex vivo serum total antioxidant capacity (Trolox equivalent); type: in vivo, rat
Procedure: as §2

IL-6 = assay: Ex vivo serum IL-6 quantification; type: in vivo, rat
Procedure: as §2

TNF-α = assay: Ex vivo serum TNF-α quantification; type: in vivo, rat
Procedure: as §2

[5] = after the induction of T2D, before treatment
[6] = Table S11, After 5 weeks of treatment
[7] = serum, end of treatment, mean ± SEM, n = 4

Question: Which chemical stability [1] does the source give for `CS/C(=N/c1nc2ccccc2s1)N[C@@H](Cc1ccccc1)C(=O)O` [5d, (E)-((benzo[d]thiazol-2-ylimino)(methylthio)methyl)-L-phenylalanine] here?
Answer: decomposes easily under ambient conditions; also recorded: decomposes, even at low temperatures

Question: Which HOMA-IR ([2]; After 5 weeks of treatment) does the source give for `CCc1ccc(CCOc2ccc(CC3SC(=O)NC3=O)cc2)nc1` (centres unmarked) [PGZ, pioglitazone, reference compound] here?
Answer: 2.32 ± 0.407

Question: And the R-QUICKI ([2]; After 5 weeks of treatment)?
Answer: 0.339 ± 0.008

Question: And the HbA1c ([2]; After 5 weeks of treatment, mean ± SEM, n = 4)?
Answer: 9.633 ± 1.601

Question: What about the HOMA-IR ([2]; Final (end of 5 weeks treatment), PGZ 30 mg/Kg, 8d 32 mg/Kg, mean ± SEM, n = 4) of the same compound?
Answer: 2.32 ± 0.41

Question: And the HOMA-IR ([2]; Initial (beginning of treatment), PGZ 30 mg/Kg, 8d 32 mg/Kg, mean ± SEM, n = 4)?
Answer: 2.59 ± 0.34

Question: What about the HOMA-IR [2, 5] of the same compound?
Answer: 2.59 ± 0.337

Question: What about the R-QUICKI [2, 5] of the same compound?
Answer: 0.333 ± 0.007

Question: What about the HbA1c ([2]; after the induction of T2D, before treatment, mean ± SEM, n = 4) of the same compound?
Answer: 8.433 ± 0.088

Question: What about the “adipogenic effect at necropsy” value ([2]; after treatment) of the same compound?
Answer: clear adipogenic effect

Question: What about the “polydipsia (water consumption)” value ([2]; daily oral treatment) of the same compound?
Answer: decreasing the polydipsia after the first week of treatment

Question: And the “redistribution of adipose tissue from visceral to subcutaneous fat” value ([2]; necropsy)?
Answer: marked

Question: And the A/G ([3]; Final)?
Answer: 1.43 ± 0.05

Question: And the AMY ([3]; Final)?
Answer: 405.75 ± 25.93

Question: What about the AST/ALT ([3]; Final) of the same compound?
Answer: 4.61 ± 0.51

Question: And the BUN/CRE ([3]; Final)?
Answer: 28.00 ± 3.24

Question: And the GGT ([3]; Final)?
Answer: 1.25 ± 0.19

Question: What about the GLU ([3]; Final) of the same compound?
Answer: 275.25 ± 84.75

Question: What about the T-CHOL ([3]; Final) of the same compound?
Answer: 98.00 ± 5.57

Question: What about the TBA ([3]; Final) of the same compound?
Answer: 72.60 ± 16.24

Question: And the TG ([3]; Final)?
Answer: 151.00 ± 10.42

Question: And the ALP ([3]; Final)?
Answer: 274.00 ± 58.19

Question: And the ALT ([3]; Final)?
Answer: 75.75 ± 6.73

Question: What about the AST ([3]; Final) of the same compound?
Answer: 343.50 ± 39.59

Question: What about the CK ([3]; Final) of the same compound?
Answer: > 3000

Question: What about the ALB ([3]; Final) of the same compound?
Answer: 3.78 ± 0.12

Question: And the GLO ([3]; Final)?
Answer: 2.65 ± 0.12

Question: What about the BUN ([3]; Final) of the same compound?
Answer: 14.81 ± 1.23

Question: What about the CRE ([3]; Final) of the same compound?
Answer: 0.54 ± 0.04

Question: And the Ca ([3]; Final)?
Answer: 9.18 ± 0.08

Question: What about the Mg ([3]; Final) of the same compound?
Answer: 2.40 ± 0.05

Question: What about the P ([3]; Final) of the same compound?
Answer: 8.30 ± 0.47

Question: What about the TBIL ([3]; Final) of the same compound?
Answer: 0.16 ± 0.02

Question: What about the UREA ([3]; Final) of the same compound?
Answer: 31.58 ± 2.78

Question: What about the tCO2 ([3]; Final) of the same compound?
Answer: 18.00 ± 0.41

Question: What about the TP ([3]; Final) of the same compound?
Answer: 6.43 ± 0.22

Question: And the A/G ([3]; Initial)?
Answer: 1.45 ± 0.03

Question: What about the AMY ([3]; Initial) of the same compound?
Answer: 369.75 ± 26.22

Question: What about the AST/ALT ([3]; Initial) of the same compound?
Answer: 1.99 ± 0.38

Question: And the BUN/CRE ([3]; Initial)?
Answer: 25.75 ± 2.59

Question: What about the GGT ([3]; Initial) of the same compound?
Answer: 0.80 ± 0.25

Question: What about the GLU ([3]; Initial) of the same compound?
Answer: 203.25 ± 19.84

Question: What about the T-CHOL ([3]; Initial) of the same compound?
Answer: 81.00 ± 1.96

Question: And the TBA ([3]; Initial)?
Answer: 76.43 ± 13.25

Question: What about the TG ([3]; Initial) of the same compound?
Answer: 108.13 ± 6.46

Question: What about the ALP ([3]; Initial) of the same compound?
Answer: 271.25 ± 44.69

Question: And the ALT ([3]; Initial)?
Answer: 63.5 ± 6.5

Question: What about the AST ([3]; Initial) of the same compound?
Answer: 119.25 ± 7.96

Question: What about the CK ([3]; Initial) of the same compound?
Answer: 509 ± 118.04

Question: What about the ALB ([3]; Initial) of the same compound?
Answer: 3.85 ± 0.06

Question: What about the GLO ([3]; Initial) of the same compound?
Answer: 2.65 ± 0.10

Question: What about the BUN ([3]; Initial) of the same compound?
Answer: 14.22 ± 1.51

Question: And the CRE ([3]; Initial)?
Answer: 0.56 ± 0.03

Question: And the Ca ([3]; Initial)?
Answer: 9.30 ± 0.20

Question: And the Mg ([3]; Initial)?
Answer: 2.09 ± 0.03

Question: And the P ([3]; Initial)?
Answer: 7.55 ± 0.87

Question: What about the TBIL ([3]; Initial) of the same compound?
Answer: 0.2 ± 0.02

Question: And the UREA ([3]; Initial)?
Answer: 30.40 ± 3.28

Question: And the tCO2 ([3]; Initial)?
Answer: 13.75 ± 0.85

Question: And the TP ([3]; Initial)?
Answer: 6.5 ± 0.15

Question: What about the “effect on total antioxidant capacity (TAC)” value [4] of the same compound?
Answer: partial recovery of TAC

Question: And the “TAC Equivalent to Trolox” value [4, 6]?
Answer: 97.75 ± 1.29 µM

Question: What about the “TAC Equivalent to Trolox” value [4, 7] of the same compound?
Answer: 97.75 ± 1.29 µM

Question: What about the “effect on IL-6 and TNF-α levels” value (IL-6; IL-6 and TNF-α together) of the same compound?
Answer: significantly reduced IL-6 and TNF-α levels

Question: What about the IL-6 (IL-6; [6]) of the same compound?
Answer: 234.25 ± 52.05 pg/mL

Question: What about the IL-6 (IL-6; [7]) of the same compound?
Answer: 234.25 ± 52.05 pg/mL

Question: What about the TNF-α (TNF-α; [6]) of the same compound?
Answer: 3000.53 ± 519.24 pg/mL

Question: And the TNF-α (TNF-α; [7])?
Answer: 3000.53 ± 519.24 pg/mL
